Source: paper PMC10123104 (Nucleic Acids Research, 2023)
No end group written: not given here.

Target: YbiB (Escherichia coli, UniProt P30177)
Assay: biochemical
Format: binding

YbiB, sequence (P30177 whole entry): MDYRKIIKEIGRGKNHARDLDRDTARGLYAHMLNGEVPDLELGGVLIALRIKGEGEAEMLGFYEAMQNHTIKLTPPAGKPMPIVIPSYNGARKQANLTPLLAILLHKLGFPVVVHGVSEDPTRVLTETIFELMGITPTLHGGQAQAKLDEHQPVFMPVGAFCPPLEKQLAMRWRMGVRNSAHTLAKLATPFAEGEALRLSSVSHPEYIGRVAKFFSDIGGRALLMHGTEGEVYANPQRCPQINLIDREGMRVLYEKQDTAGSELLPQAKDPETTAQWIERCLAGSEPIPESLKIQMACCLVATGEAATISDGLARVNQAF

Compound | Kd | stoichiometry n (ITC, Figure 3C isotherm, single binding event)
LEEIAEEDDEDADDDADEDD [peptide4-AA] | ~10 µM | –
CC[C@H](C)[C@H](NC(=O)[C@H](Cc1ccccc1)NC(=O)[C@H](CCC(=O)O)NC(=O)[C@@H](NC(=O)CNC(=O)[C@H](CCC(=O)O)NC(=O)[C@H](CCC(=O)O)NC(=O)[C@H](CC(=O)O)NC(=O)[C@H](CC(=O)O)NC(=O)[C@H](CCC(=O)O)NC(=O)[C@H](CC(=O)O)NC(=O)[C@H](Cc1c[nH]c2ccccc12)NC(=O)[C@H](CC(=O)O)NC(=O)[C@H](CC(=O)O)NC(=O)[C@H](CC(=O)O)NC(=O)[C@H](Cc1c[nH]c2ccccc12)NC(=O)[C@@H](N)CC(=O)O)C(C)C)C(=O)N[C@@H](Cc1ccc(O)cc1)C(=O)N[C@@H](CCCCN)C(=O)N[C@@H](CCCNC(=N)N)C(=O)O [peptide5] | – | 0.937 ± 0.008
